From US20060229255A1, “Identification of n-alkylglycine trimers for induction of apoptosis” (priority 2003, published 2006) come the findings set out here.

SMILES strings stand for the structures.

What all share (format): cell-based, human
The subject of one assay is Bcl-xL. The assay can be described thus: Western blot of Bcl-xL phosphorylation. The settings on record: HT29 cells, 3, 6 and 24 h. Here is the method: (§1) Western blotting. Floating and adherent cells were harvested and pellets were resuspended in RIPA buffer (50 mM Tris/HCl 7.4, 250 mM NaCl, 0,5% Igepal CA630, 5 mM EDTA, 1 mM PMSF, 10 μg/ml leupeptin, 50 mM NaF, 0.1 mM Na3VO4) or Deoxycholate buffer (10 mM phosphate buffer 7.4, […] NaCl, 0.5% Deoxycholate, 1% Igepal, 0.1% SDS, 1 mM PMSF). Protein concentration was determined with BCA Protein Assay Kit (Pierce) for RIPA extracts or Bradford assay (BioRad) for Deoxycholate extracts. Total protein (20-30 μg/lane) were separated by SDS-PAGE, transferred to PVDF membranes (Gellman), and probed with antibodies against Bcl-xL (Transduction); Bax (Santa Cruz); JNK (Santa Cruz); phospho-JNK (Cell Signaling); pRb (Pharmingen); pRb-phospho Ser780 (Cell Signalling); p130 (Santa Cruz); p107 (Santa Cruz); Cdk2 (Santa Cruz); p27^Kip1 (Santa Cruz); p21^Cip1 (Santa Cruz); actin (Sigma); or tubulin (ICN) and developed with ECL system (AmershamPharmacia biotech)
(§2) FIG. 6. (A) JNK is activated after N13-13-10C treatment. HT29 cells were treated for 1, 3, 6 and 24 h with N13-13-10C (35 μM), harvested and immunoblotted to assess activation of SAP/JNK MAP kinase. Western blot was first probed with the JNK-phosphor specific antibody, was stripped and reprobed with the pan-JNK antibody and actin to normalize total protein level. […]

A further assay relates to Bax. In words: Western blot of Bax. The conditions noted are these: HT29 cells. Here is the method: as §1, §2
In another assay the test system is pRb, p21Cip1, p27Kip1. The assay can be described thus: Western blot of G0/G1 checkpoint proteins in HT29 cells. The settings on record: for pRb levels compared to controls: HT29, after 24 h in culture. Here is the method:
as §1
(§3) FIG. 8. Expression of protein involved in G0/G1 checkpoint. (A.) HT29 cells were treated for 1, 3, 6 and 24 h with N10-13-10C (40 μM) or N13-13-10C (35 µM), harvested and immunoblotted to assess total pRb levels or Cdk4 specific phosphorylation at pRb-Ser^780 (PpRb). Western blot was first probed with the pRb-Ser^780 phosphorylation specific antibody, was stripped and reprobed with the pan-pRb antibody and tubulin to normalize total protein level. (B.) T98 g cells were synchronized by serum starvation and reinitiated with 10% FCS and DMSO (C), N13-13-10C (100 μM) or Taxol (30 nM) for 15, 17, 24 or 29 h. Western blot of total protein extracts was probed with antibodies to p130, pRb, p107, Cdk2, cycA, p27, p21 and actin. Unphosphorylated, hypophosphorylated as well as hyperphosphorylated pRb are detected (arrows). (C.) HT29 cells treated for 24 and 48 h with N13-13-10C (40 μM) or DMSO as control. Immunoblots were stained with antibodies to Cdk2, cycA, p21, p27 and actin.

For a further assay, the system named is HT29 cells. The assay can be described thus: Annexin V-FITC detection assay. The conditions noted are these: HT29, 35 μM, 40 h treatment. The protocol: Annexin V assay. Treated cells were harvested with EDTA 0.02% in Hank's Balanced Salt Solution (HBSS), washed in HBSS then in PBS (phosphate buffered saline) containing 1% BSA (Bovine serum albumine) and finally resuspended in Annexin V incubation buffer (10 mM HEPES 7.4; 140 mM NaCl; 2.5 mM CaCl2) containing 1% BSA. 10^5 cells were incubated with 5 μl Annexin-V-FITC (Bender MedSystems) for 1 h at room temperature and in the dark. Dead cells were stained with Propidium Iodide (PI) at 2 μg/ml. The analysis was immediately performed by flow cytometry.
FIG. 5. Detection of early apoptosis. Annexin V assay after 40 h of treatment with DMSO (right panel), N13-13-10C, 35 µM (central panel), or Taxol, 11 nM (left panel). HT29 treated cells were stained with Annexin V-FITC and PI and subjected to flow cytometry. Fluorescence dot blots of annexin V positive (vertical axis) and PI positive (horizontal axis, logarithmic values) cells are shown. Cell distribution expressed as percentage of the population is indicated: early apoptotic cells in quadrant 1, Q1 (AnV+/IP−); dead cells in Q2 (AnV+/IP+); living cells in Q3 (AnV−/IP−); necrotic cells in Q4 (AnV−/IP+).

The next assay deals with JNK. The assay can be described thus: Western blot with JNK-phosphorylation specific antibody. The settings on record: HT29 cells. The protocol:
as §1, §2

The test system of assay [1] is pRb, p130, p107, p27kip1, p21Cip1. In words: Western blot of G1 checkpoint proteins in synchronized T98 g cells. The protocol: as §1, §3

As for `COc1ccc(CCN(CC(=O)N(CCc2ccccc2)CC(N)=O)C(=O)CNCCc2ccccc2)cc1` [N10-13-10C], in the assay with Bcl-xL, the “Bcl-xL phosphorylation (slower migrating band)” value is on record as “not observed”. Moreover, the Bax level entry in the assay on Bax is listed as “not increased”. Besides, in the assay on pRb, p21Cip1, p27Kip1, the “pRb levels compared to controls” value was “decreased”.

As for `COc1ccc(CCNCC(=O)N(CCc2ccc(OC)cc2)CC(=O)N(CCc2ccccc2)CC(N)=O)cc1` [N13-13-10C], in the assay with HT29 cells, the “Early apoptotic cells (IP negative, Annexin V positive)” value is reported as 14% and the “Increase of early apoptotic cells with respect to control cells” value worked out at 3.5 fold. In addition, the “Time of JNK activation (phosphorylation)” value with JNK fell in the range of 3 to 6 h. Also, the “pRb phosphorylation at Ser780 respect to total pRb levels” value in the assay on pRb, p21Cip1, p27Kip1 (HT29, 35 μM, 1-24 h) is “did not decrease”. Moreover, in the assay on pRb, p21Cip1, p27Kip1 (HT29, 24 h and 48 h), the p21Cip1 expression entry was “Over expression” and the p27Kip1 expression result is listed as “Over expression”. Moreover, the “pRb levels compared to controls” value in the assay with pRb, p21Cip1, p27Kip1 is recorded as “decreased”. Also, the “Time of p21Cip1 peak levels” value in assay [1] (T98 g, 100 μM) is reported as 17 h. In assay [1] (T98 g, after 15 h of treatment), the p27kip1 level entry is recorded as “appreciable induction”. Besides, in assay [1] (synchronized T98 g, 100 μM), the “Total pRb levels” value was “decreased total pRb levels”, the p107 levels entry was “down regulated”, the p130 phosphorylation result was “remains also hypophosphorylated” and the p130 total levels entry is “total levels are increased”. The pRb hyperphosphorylation entry in assay [1] (synchronized T98 g, 100 μM) is “prevented pRb hyperphosphorylation”.
